Experiments:
[1] = target: T1, human β-Secretase (sBACE-Fc) (Homo sapiens (Human), UniProt P56817); experiment: Diluted TR-FRET assay; type: biochemical; settings: diluted TR-FRET assay: 50 times less enzyme, 6.5 h reaction time at r.t.; read-out: IC50 in TR-FRET assay (IC50 from the diluted FRET assay)
Description: (§1) The cDNA for the soluble part of the human β-Secretase (AA 1-AA 460) was cloned using the ASP2-Fc10-1-IRES-GFP-neoK mammalian expression vector. The gene was fused to the Fc domain of IgG1 (affinity tag) and stably cloned into HEK 293 cells.
(§2) The enzyme (truncated form) was diluted to 6 μg/mL (stock 1.3 mg/mL) and the TruPoint BACE1 Substrate to 200 nM (stock 120 μM) in reaction buffer (NaAcetate, chaps, triton x-100, EDTA pH4.5). Enzyme and compound in dimethylsulphoxide (final DMSO concentration 5%) was mixed and pre-incubated for 10 minutes at RT. Substrate was then added and the reaction was incubated for 15 minutes at RT. The reaction was stopped with the addition of 0.35 vol Stop solution (NaAcetate, pH 9). The fluorescence of the product was measured on a Victor II plate reader with excitation wavelengths of 340-485 nm and emission wavelengths of 590-615 nm. The final concentration of the enzyme was 2.7 μg/ml; the final concentration of substrate was 100 nM (Km of ˜250 nM). The dimethylsulphoxide control, instead of test compound, defined the 100% activity level and 0% activity was defined by wells lacking enzyme (replaced with reaction buffer) or by a saturating dose of a known inhibitor, 2-amino-6-[3-β-methoxyphenyl)phenyl]-3,6-dimethyl-5H-pyrimidin-4-one.
Compounds with a high affinity were further tested in a diluted TR-FRET assay, conditions as described above for the TR-FRET assay, but with 50 times less enzyme and a 6.5 h long reaction time at r.t. in the dark.

[2] = test system: sAPPβ release in SH-SY5Y cells; experiment: sAPPβ release assay; type: cell-based; settings: 17 h incubation
Description: SH-SY5Y cells were cultured in DMEM/F-12 with Glutamax, 10% FCS and 1% non-essential amino acids and cryopreserved and stored at −140° C. at a concentration of 7.5−9.5×10^6 cells per vial. […] The cell plates were then incubated for 7-24 h at 37° C., 5% CO2. The cell medium was removed, followed by addition of 30 μL compound diluted in DMEM/F-12 with Glutamax, 10% FCS, 1% non-essential amino acids and 1% PeSt to a final conc. of 1% DMSO. The compounds were incubated with the cells for 17 h (overnight) at 37° C., 5% CO2. Meso Scale Discovery (MSD) plates were used for the detection of sAPPβ release. MSD sAPPβ plates were blocked in 1% BSA in Tris wash buffer (40 μL/well) for 1 h on shake at r.t. and washed 1 time in Tris wash buffer (40 μL/well). 20 μL of medium was transferred to the pre-blocked and washed MSD sAPPβ microplates, and the cell plates were further used in an ATP assay to measure cytotoxicity. The MSD plates were incubated with shaking at r.t. for 2 h and the media discarded. 10 μL detection antibody was added (1 nM) per well followed by incubation with shaking at r.t. for 2 h and then discarded. 40 μL Read Buffer was added per well and the plates were read in a SECTOR Imager.

[3] = target: T1, human β-Secretase (sBACE-Fc); experiment: TR-FRET assay; type: biochemical; settings: standard TR-FRET assay, 15 minutes reaction at RT
Description: The β-secretase enzyme used in the TR-FRET is prepared as follows:
as §1, §2

T1 sequence (P56817 22-460): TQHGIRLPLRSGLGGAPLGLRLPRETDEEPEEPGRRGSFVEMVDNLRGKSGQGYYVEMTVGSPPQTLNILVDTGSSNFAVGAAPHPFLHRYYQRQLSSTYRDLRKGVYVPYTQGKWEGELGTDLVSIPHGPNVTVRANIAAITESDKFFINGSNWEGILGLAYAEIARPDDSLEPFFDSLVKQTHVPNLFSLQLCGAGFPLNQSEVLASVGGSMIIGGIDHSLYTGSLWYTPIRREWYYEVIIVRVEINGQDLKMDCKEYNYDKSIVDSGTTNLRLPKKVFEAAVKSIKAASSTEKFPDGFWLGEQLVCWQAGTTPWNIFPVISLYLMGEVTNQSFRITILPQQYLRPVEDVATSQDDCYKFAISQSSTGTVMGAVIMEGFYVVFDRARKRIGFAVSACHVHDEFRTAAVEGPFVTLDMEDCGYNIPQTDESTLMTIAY

IC50 [1] [nM]	IC50 [2] [nM]	IC50 [3] [nM]	IC50 ([2]; Homo sapiens) [nM]	Compound
3.7	0.9	–	–	CO[C@H]1CC[C@]2(CC1)Cc1ccc(OCC3CC3)cc1[C@@]21N=C(C)C(N)=N1 (single isomer, unassigned; isomer 1) [4, isomer 1]
–	1.3	–	–	CO[C@H]1CC[C@]2(CC1)Cc1ccc(OCC3CCC3)cc1[C@@]21N=C(C)C(N)=N1 (single isomer, unassigned; isomer 1) [7, isomer 1]
–	–	> 5000	–	CO[C@H]1CC[C@]2(CC1)Cc1ccc(OCC3CC3)cc1[C@]21N=C(C)C(N)=N1 (single isomer, unassigned; isomer 2) [4, isomer 2]
18	–	–	2.8	CO[C@H]1CC[C@]2(CC1)Cc1ccc(OCC3(C)CC3)cc1C21N=C(C)C(N)=N1 (stereo partly drawn) [Example 1, (1r,4r)-4-Methoxy-5″-methyl-6′-[(1-methylcyclopropyl)methoxy]-3′H-dispiro[cyclohexane-1,2′-indene-1′,2″-imidazol]-4″-amine]
–	–	50	8.4	CO[C@H]1CC[C@]2(CC1)Cc1ccc(OCC3CC(F)(F)C3)cc1C21N=C(C)C(N)=N1 (stereo partly drawn) [Example 2, (1r,4r)-6′-[(3,3-Difluorocyclobutyl)methoxy]-4-methoxy-5″-methyl-3′H-dispiro[cyclohexane-1,2′-indene-1′,2″-imidazol]-4″-amine]
7.4	–	–	1.6	CO[C@H]1CC[C@]2(CC1)Cc1ccc(OCC3CC3)cc1C21N=C(C)C(N)=N1 (stereo partly drawn) [Example 3, (1r,4r)-6′-(Cyclopropylmethoxy)-4-methoxy-5″-methyl-3′H-dispiro[cyclohexane-1,2′-indene-1′,2″-imidazol]-4″-amine]
13	–	–	2.3	CO[C@H]1CC[C@]2(CC1)Cc1ccc(OCC3CC3(F)F)cc1C21N=C(C)C(N)=N1 (stereo partly drawn) [Example 5, (1r,4r)-6′-[(2,2-Difluorocyclopropyl)methoxy]-4-methoxy-5″-methyl-3′H-dispiro[cyclohexane-1,2′-indene-1′,2″-imidazol]-4″-amine]
–	–	–	1.5	CO[C@H]1CC[C@]2(CC1)Cc1ccc(OCC3CCC3)cc1C21N=C(C)C(N)=N1 (stereo partly drawn) [Example 6, (1r,4r)-6′-(Cyclobutylmethoxy)-4-methoxy-5″-methyl-3′H-dispiro[cyclohexane-1,2′-indene-1′,2″-imidazol]-4″-amine]
3.7	–	–	0.8	CO[C@H]1CC[C@]2(CC1)Cc1ccc(OCCC3CC3)cc1C21N=C(C)C(N)=N1 (stereo partly drawn) [Example 8, (1r,4r)-6′-(2-Cyclopropylethoxy)-4-methoxy-5″-methyl-3′H-dispiro[cyclohexane-1,2′-indene-1′,2″-imidazol]-4″-amine]

From patent US9000185B2, “Cycloalkyl ether compounds and their use as BACE inhibitors” (AstraZeneca AB, priority 2012, dated 2015)
